Measured values as given in US20130131128A1, “ASSOCIATION OF XANTHINE OXIDASE INHIBITORS AND ANGIOTENSIN II RECEPTOR ANTAGONISTS AND USE THEREOF” (MENARINI INTERNATIONAL OPERATIONS LUXEMBOURG S.A., priority 2010, published 2013).

Tests used:
[1] = system: spontaneously hypertensive rat (SHR); assay: Plasma uric acid (uricemia) in potassium oxonate-induced hyperuricemia in spontaneously hypertensive rats; type: in vivo; settings: for Uricemia: SHR + K oxonate 250 mg/kg IP, 4 hours after last dose; for Δ Uricemia: SHR + K oxonate, difference vs Control + K oxonate; for Effect on hyperuricemia values (in words): oral, one week before potassium oxonate, 1-3-10 mg/kg, SHR
Experimental: (§1) Pharmacological activity of febuxostat and olmesartan medoxomil, alone or in association, was assessed in an experimental model of hyperuricemia in spontaneously hypertensive rat (SHR, Harlan Laboratories, Udine, Italy). Systolic pressure (SBP) was measured in non-anesthesized animals by means of a tail cuff sphygmomanometer (Blood Pressure Analysis System BP-2000, Visitech Systems, USA) equipped with an automatic system for data acquisition and processing.
(§2) All animals were preconditioned daily for 2 weeks to accustom them to instrumental measuring of the pressure before starting the test. Hyperuricemia was induced with administration of potassium oxonate (250 mg/kg IP, 2 hours after the last dose of drugs and 2 hours before the test), an uricase inhibitor capable of inducing experimental hyperuricemia. Plasma levels of uric acid were measured with a standard colorimetric enzymatic method. Febuxostat and/or olmesartan were administered orally once per day for 7 days, by gavage, at the doses of 1-3-10 mg/kg.
(§3) Parameters measured in conscious rats were systolic pressure (SBP) and plasma uric acid/urate levels (uricemia), as well as basal values, both after one week of treatment and 2 hours after administration of potassium oxonate. Blood was collected from a tail vein.
(§4) Uricemia and systolic pressure values were recorded 4 hours after the last dose of drugs or vehicle. Potassium oxonate (250 mg/kg IP) was administered 2 ore before the test. Each value is the average of 7-13 tests.

hyperuricemia = settings: clinical studies; cited from earlier work
[2] = system: spontaneously hypertensive rat (SHR); assay: Systolic pressure (SBP) by tail cuff sphygmomanometer in conscious spontaneously hypertensive rats; type: in vivo; settings: for SBP / Δ SBP: SHR + K oxonate; for SBP: 4 hours after last dose; for Δ SBP: difference vs Control + K oxonate; for Effect on systolic pressure (in words): 1-3-10 mg/kg per os, daily for 1 week, SHR
Experimental: as §1, §2, §3, §4

30 hypertensive subjects = settings: monotherapy, only teenagers; cited from earlier work
[3] = 1 mg/kg day per os for one week
[4] = 3 mg/kg day per os for one week
[5] = 10 mg/kg day per os for one week

Row | Compound | Uricemia [1, 3] [mg/dL] | Δ Uricemia [1, 3] [mg/dL] | Uricemia [1, 4] [mg/dL] | Δ Uricemia [1, 4] [mg/dL] | Uricemia [1, 5] [mg/dL] | Δ Uricemia [1, 5] [mg/dL] | Effect on hyperuricemia values (in words) [1] | Reduction of hyperuricemia compared with allopurinol (in words) (hyperuricemia) | SBP [2, 3] [mmHg] | Δ SBP [2, 3] [mmHg] | SBP [2, 4] [mmHg] | Δ SBP [2, 4] [mmHg] | SBP [2, 5] [mmHg] | Δ SBP [2, 5] [mmHg] | Effect on systolic pressure (in words) [2] | Anti-hypertensive effect (in words) (30 hypertensive subjects)
1 | Cc1nc(-c2ccc(OCC(C)C)c(C#N)c2)sc1C(=O)O [Febuxostat, febuxostat] | 1.02 ± 0.07 | -0.15 | 0.78 ± 0.06 | -0.39 | 0.49 ± 0.05 | -0.68 | reduced in a significant and dose-dependent manner the hyperuricemia values | reduce hyperuricemia more effectively than allopurinol | 234 ± 19 | −5 | 229 ± 24 | −10 | 228 ± 21 | −11 | slight inhibitory effect on systolic pressure | –
2 | CCCc1nc(C(C)(C)O)c(C(=O)OCc2oc(=O)oc2C)n1Cc1ccc(-c2ccccc2-c2nnn[nH]2)cc1 [Olmesartan, olmesartan medoxomil] | 1.16 ± 0.11 | -0.01 | 1.10 ± 0.12 | -0.07 | 1.08 ± 0.07 | -0.09 | weakly active | – | 217 ± 14 | −22 | 202 ± 10 | −37 | 180 ± 11 | −59 | reduced systolic pressure in a dose-dependent manner | –
3 | Oc1ncnc2[nH]ncc12 [allopurinol] | – | – | – | – | – | – | – | – | – | – | – | – | – | – | – | has shown an anti-hypertensive effect
